The kinase profiling compilation of Christmann-Franck et al. (2016)

What was measured:
Details in all cases: compound 10.0 µM
DAPK3 (human) = DAPK3 (human) (UniProt O43293)
CDK7 (human) = CDK7 (human) (UniProt P50613)
PIP5K1A (human) = PIP5K1A (human) (UniProt Q99755)
PHKG1 (human) = PHKG1 (human) (UniProt Q16816)
CAMK4 (human) = CAMK4 (human) (UniProt Q16566)
MAP3K4 (human) = MAP3K4 (human) (UniProt Q9Y6R4)
CAMK2B (human) = CAMK2B (human) (UniProt Q13554)
MAP2K4 (human) = MAP2K4 (human) (UniProt P45985)
Sequence of MAP2K4 (human) (P45985 whole entry, looked up): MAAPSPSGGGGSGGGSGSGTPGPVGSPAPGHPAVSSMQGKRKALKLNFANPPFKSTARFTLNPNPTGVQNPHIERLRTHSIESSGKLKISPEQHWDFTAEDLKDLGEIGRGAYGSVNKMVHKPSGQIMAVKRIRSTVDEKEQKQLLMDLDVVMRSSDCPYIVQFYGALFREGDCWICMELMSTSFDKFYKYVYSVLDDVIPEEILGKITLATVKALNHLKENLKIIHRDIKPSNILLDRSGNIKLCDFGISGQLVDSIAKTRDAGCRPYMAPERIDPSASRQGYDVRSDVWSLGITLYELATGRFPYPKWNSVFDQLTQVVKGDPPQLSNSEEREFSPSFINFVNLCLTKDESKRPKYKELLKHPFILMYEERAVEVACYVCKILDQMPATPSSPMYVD

MAP3K5 (human) = MAP3K5 (human) (UniProt Q99683)
TAOK1 (human) = TAOK1 (human) (UniProt Q7L7X3)
TLK1 (human) = TLK1 (human) (UniProt Q9UKI8)
CDK13 (human) = CDK13 (human) (UniProt Q14004)
RIPK1 (human) = RIPK1 (human) (UniProt Q13546)
[1] = test system: FGFR3 (human), P22607 [G697C]
INSRR (human) = INSRR (human) (UniProt P14616)
HUNK (human) = HUNK (human) (UniProt P57058)
RPS6KA5 KD1 (human) = RPS6KA5 KD1 (human) (UniProt O75582)
MAST1 (human) = MAST1 (human) (UniProt Q9Y2H9)
Sequence of MAST1 (human) (Q9Y2H9 whole entry, looked up): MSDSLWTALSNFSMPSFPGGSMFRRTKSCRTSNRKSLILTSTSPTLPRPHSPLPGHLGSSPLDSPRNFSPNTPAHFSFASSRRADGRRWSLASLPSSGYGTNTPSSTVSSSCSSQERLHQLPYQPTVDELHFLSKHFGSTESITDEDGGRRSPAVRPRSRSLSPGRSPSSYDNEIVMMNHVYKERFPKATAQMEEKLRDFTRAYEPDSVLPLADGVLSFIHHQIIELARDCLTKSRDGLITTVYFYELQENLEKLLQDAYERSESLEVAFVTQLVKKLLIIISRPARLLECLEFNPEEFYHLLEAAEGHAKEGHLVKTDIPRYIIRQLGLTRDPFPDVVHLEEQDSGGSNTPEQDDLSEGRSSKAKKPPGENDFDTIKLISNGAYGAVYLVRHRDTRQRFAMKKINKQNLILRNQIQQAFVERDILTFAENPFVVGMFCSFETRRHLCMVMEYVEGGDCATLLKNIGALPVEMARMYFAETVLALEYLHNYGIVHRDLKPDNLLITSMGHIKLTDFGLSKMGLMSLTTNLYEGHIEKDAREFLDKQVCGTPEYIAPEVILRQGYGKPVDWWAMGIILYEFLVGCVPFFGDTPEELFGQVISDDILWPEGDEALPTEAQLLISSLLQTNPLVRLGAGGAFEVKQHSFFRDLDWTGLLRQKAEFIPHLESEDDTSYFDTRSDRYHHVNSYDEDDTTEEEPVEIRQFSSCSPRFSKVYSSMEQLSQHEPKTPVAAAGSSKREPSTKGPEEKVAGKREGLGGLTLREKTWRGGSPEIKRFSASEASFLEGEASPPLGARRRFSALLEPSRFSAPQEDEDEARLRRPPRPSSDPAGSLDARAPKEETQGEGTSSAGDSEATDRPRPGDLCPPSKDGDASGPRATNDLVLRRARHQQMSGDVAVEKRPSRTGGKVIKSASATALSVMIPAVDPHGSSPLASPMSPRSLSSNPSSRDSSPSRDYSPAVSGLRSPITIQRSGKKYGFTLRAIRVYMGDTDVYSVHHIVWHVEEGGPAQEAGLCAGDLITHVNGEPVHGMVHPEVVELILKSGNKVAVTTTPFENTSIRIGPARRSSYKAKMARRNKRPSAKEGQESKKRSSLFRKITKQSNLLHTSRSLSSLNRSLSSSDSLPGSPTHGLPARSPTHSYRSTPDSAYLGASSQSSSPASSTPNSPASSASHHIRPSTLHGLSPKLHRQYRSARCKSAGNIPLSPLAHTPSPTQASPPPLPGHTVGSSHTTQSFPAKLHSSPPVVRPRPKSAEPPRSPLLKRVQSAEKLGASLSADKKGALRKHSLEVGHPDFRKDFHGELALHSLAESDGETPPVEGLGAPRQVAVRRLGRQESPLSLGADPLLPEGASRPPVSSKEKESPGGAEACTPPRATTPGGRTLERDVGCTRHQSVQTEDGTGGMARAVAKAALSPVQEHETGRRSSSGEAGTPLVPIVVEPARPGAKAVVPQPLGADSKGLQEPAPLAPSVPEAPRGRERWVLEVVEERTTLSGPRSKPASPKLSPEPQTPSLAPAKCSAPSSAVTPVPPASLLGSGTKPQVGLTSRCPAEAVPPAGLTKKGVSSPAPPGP

BMPR2 (human) = BMPR2 (human) (UniProt Q13873)
TRPM6 (human) = TRPM6 (human) (UniProt Q9BX84)
Sequence of TRPM6 (human) (Q9BX84 whole entry, looked up): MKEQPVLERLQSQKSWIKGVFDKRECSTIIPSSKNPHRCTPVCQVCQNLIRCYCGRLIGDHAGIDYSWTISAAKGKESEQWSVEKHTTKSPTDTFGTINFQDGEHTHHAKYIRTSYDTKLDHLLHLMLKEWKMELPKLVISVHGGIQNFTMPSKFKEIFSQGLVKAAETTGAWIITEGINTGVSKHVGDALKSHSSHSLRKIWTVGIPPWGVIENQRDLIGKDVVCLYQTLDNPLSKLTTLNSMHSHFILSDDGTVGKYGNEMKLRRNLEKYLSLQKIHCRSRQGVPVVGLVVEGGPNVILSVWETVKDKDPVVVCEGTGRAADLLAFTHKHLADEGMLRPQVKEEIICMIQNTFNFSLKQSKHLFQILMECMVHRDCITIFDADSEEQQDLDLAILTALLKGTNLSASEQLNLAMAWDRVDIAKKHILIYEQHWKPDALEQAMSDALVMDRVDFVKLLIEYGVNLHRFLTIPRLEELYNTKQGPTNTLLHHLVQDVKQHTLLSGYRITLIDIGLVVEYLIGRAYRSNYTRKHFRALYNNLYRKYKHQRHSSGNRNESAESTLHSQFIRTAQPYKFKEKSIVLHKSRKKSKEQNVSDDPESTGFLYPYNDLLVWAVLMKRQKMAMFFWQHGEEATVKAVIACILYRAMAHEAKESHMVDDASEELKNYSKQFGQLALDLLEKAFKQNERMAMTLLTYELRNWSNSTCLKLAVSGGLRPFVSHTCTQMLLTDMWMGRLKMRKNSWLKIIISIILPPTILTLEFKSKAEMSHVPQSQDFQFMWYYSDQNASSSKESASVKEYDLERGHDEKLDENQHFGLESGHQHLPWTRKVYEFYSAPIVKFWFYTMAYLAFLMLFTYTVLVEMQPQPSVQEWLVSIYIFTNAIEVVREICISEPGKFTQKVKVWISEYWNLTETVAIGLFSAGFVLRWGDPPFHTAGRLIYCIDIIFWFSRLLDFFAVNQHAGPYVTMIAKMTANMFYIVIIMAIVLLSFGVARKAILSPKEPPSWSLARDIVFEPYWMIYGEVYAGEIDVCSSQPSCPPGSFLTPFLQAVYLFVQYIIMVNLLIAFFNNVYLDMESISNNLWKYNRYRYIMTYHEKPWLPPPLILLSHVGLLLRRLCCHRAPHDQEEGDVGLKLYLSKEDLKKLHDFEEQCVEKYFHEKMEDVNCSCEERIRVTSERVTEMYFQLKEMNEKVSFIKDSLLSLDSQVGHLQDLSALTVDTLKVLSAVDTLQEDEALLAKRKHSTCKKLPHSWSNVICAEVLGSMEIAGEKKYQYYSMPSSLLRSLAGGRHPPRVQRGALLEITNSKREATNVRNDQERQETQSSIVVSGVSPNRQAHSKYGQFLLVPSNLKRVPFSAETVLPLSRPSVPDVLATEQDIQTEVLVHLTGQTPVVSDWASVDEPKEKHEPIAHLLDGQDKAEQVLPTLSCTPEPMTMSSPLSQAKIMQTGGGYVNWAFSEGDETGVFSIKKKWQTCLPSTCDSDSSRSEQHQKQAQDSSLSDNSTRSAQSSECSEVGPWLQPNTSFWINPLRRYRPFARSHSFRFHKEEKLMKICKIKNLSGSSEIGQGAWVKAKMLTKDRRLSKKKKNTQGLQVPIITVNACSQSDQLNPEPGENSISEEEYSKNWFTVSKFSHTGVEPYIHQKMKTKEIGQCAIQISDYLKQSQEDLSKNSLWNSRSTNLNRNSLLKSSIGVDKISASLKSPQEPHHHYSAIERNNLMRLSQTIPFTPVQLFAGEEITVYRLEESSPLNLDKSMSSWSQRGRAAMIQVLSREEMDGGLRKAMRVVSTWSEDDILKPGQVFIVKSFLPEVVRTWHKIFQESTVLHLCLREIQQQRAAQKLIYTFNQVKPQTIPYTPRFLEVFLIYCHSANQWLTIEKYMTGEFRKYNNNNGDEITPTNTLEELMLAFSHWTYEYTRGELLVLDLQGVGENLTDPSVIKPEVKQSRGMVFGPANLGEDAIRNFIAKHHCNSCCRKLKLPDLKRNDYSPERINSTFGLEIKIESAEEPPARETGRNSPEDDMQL

RIPK2 (human) = RIPK2 (human) (UniProt O43353)
IRAK3 (human) = IRAK3 (human) (UniProt Q9Y616)
CDC42BPG (human) = CDC42BPG (human) (UniProt Q6DT37)
TLK2 (human) = TLK2 (human) (UniProt Q86UE8)
[2] = target: TYK2 JH1 catalytic (human) (UniProt P29597)
NEK5 (human) = NEK5 (human) (UniProt Q6P3R8)
RPS6KA2 KD2 (human) = RPS6KA2 KD2 (human) (UniProt Q15349)
RPS6KB1 (human) = RPS6KB1 (human) (UniProt P23443)
CDK9 (human) = CDK9 (human) (UniProt P50750)
MAPK10 (human) = MAPK10 (human) (UniProt P53779)
MAP4K3 (human) = MAP4K3 (human) (UniProt Q8IVH8)
PRKD3 (human) = PRKD3 (human) (UniProt O94806)
[3] = test system: KIT (human), P10721 [V559D/V654A]
MAP2K7 (human) = MAP2K7 (human) (UniProt O14733)
Sequence of MAP2K7 (human) (O14733 whole entry, looked up): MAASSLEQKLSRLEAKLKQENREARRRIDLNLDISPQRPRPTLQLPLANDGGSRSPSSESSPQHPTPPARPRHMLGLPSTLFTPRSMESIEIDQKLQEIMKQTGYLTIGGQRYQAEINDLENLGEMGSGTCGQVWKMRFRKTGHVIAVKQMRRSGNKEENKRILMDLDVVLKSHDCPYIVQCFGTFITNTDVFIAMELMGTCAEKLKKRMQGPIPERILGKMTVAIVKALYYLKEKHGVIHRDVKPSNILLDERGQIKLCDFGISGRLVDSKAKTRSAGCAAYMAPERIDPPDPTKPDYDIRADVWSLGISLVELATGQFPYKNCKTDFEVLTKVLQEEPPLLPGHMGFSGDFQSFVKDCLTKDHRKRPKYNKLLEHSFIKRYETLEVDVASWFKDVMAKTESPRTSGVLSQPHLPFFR

CDK14 (human) = CDK14 (human) (UniProt O94921)
CASK (human) = CASK (human) (UniProt O14936)
RIOK2 (human) = RIOK2 (human) (UniProt Q9BVS4)
PKN2 (human) = PKN2 (human) (UniProt Q16513)
NEK2 (human) = NEK2 (human) (UniProt P51955)
PIM2 (human) = PIM2 (human) (UniProt Q9P1W9)
PRKD2 (human) = PRKD2 (human) (UniProt Q9BZL6)

Sequence of CAMK2B (human) (Q13554 whole entry, looked up): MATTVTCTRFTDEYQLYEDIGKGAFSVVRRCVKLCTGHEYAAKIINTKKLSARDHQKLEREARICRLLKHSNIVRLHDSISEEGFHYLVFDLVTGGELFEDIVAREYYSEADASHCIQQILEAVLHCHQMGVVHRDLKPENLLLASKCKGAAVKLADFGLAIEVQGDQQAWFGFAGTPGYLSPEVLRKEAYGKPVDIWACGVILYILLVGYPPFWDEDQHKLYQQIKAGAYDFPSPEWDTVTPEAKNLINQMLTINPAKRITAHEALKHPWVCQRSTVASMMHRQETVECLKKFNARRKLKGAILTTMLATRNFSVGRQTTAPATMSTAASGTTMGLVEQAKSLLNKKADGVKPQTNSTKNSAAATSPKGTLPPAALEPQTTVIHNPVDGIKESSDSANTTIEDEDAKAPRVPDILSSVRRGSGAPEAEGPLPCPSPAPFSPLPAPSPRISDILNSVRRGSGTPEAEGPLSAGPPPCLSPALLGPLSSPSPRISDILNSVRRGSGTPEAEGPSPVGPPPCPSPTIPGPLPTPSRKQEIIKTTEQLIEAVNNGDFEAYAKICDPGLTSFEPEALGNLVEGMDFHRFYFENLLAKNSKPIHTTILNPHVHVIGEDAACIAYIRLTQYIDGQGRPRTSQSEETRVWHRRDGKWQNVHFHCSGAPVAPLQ

## CNC(=O)c1cc(Oc2ccc(NC(=O)Nc3ccc(Cl)c(C(F)(F)F)c3)cc2)ccn1
DAPK3 (human)
  per cent of control: 94%
CDK7 (human)
  per cent of control: 3.2%
PIP5K1A (human)
  per cent of control: 100%
PHKG1 (human)
  per cent of control: 73%
CAMK4 (human)
  per cent of control: 42%
MAP3K4 (human)
  per cent of control: 94%
CAMK2B (human)
  per cent of control: 96%
MAP2K4 (human)
  per cent of control: 85%
MAP3K5 (human)
  per cent of control: 100%
TAOK1 (human)
  per cent of control: 12%
TLK1 (human)
  per cent of control: 74%
CDK13 (human)
  per cent of control: 98%
RIPK1 (human)
  per cent of control: 88%
[1]
  per cent of control: 25%
INSRR (human)
  per cent of control: 86%
HUNK (human)
  per cent of control: 90%
RPS6KA5 KD1 (human)
  per cent of control: 77%
MAST1 (human)
  per cent of control: 100%
BMPR2 (human)
  per cent of control: 100%
TRPM6 (human)
  per cent of control: 100%
RIPK2 (human)
  per cent of control: 5.3%
IRAK3 (human)
  per cent of control: 76%
CDC42BPG (human)
  per cent of control: 84%
TLK2 (human)
  per cent of control: 99%
[2]
  per cent of control: 100%
NEK5 (human)
  per cent of control: 100%
RPS6KA2 KD2 (human)
  per cent of control: 59%
RPS6KB1 (human)
  per cent of control: 46%
CDK9 (human)
  per cent of control: 62%
MAPK10 (human)
  per cent of control: 90%
MAP4K3 (human)
  per cent of control: 48%
PRKD3 (human)
  per cent of control: 70%
[3]
  per cent of control: 0.45%
MAP2K7 (human)
  per cent of control: 92%
CDK14 (human)
  per cent of control: 3.1%
CASK (human)
  per cent of control: 100%
RIOK2 (human)
  per cent of control: 48%
PKN2 (human)
  per cent of control: 100%
NEK2 (human)
  per cent of control: 90%
PIM2 (human)
  per cent of control: 89%
PRKD2 (human)
  per cent of control: 100%

## CNC(=O)c1cc(Oc2ccc(NC(=O)Nc3ccc(Cl)c(C(F)(F)F)c3)cc2)cc[n+]1[O-]
DAPK3 (human)
  per cent of control: 100%
CDK7 (human)
  per cent of control: 5%
PIP5K1A (human)
  per cent of control: 100%
PHKG1 (human)
  per cent of control: 77%
CAMK4 (human)
  per cent of control: 54%
MAP3K4 (human)
  per cent of control: 93%
CAMK2B (human)
  per cent of control: 89%
MAP2K4 (human)
  per cent of control: 60%
MAP3K5 (human)
  per cent of control: 89%
TAOK1 (human)
  per cent of control: 11%
TLK1 (human)
  per cent of control: 60%
CDK13 (human)
  per cent of control: 40%
RIPK1 (human)
  per cent of control: 87%
[1]
  per cent of control: 50%
INSRR (human)
  per cent of control: 86%
HUNK (human)
  per cent of control: 74%
RPS6KA5 KD1 (human)
  per cent of control: 59%
MAST1 (human)
  per cent of control: 100%
BMPR2 (human)
  per cent of control: 98%
TRPM6 (human)
  per cent of control: 100%
RIPK2 (human)
  per cent of control: 9.8%
IRAK3 (human)
  per cent of control: 91%
CDC42BPG (human)
  per cent of control: 86%
TLK2 (human)
  per cent of control: 100%
[2]
  per cent of control: 100%
NEK5 (human)
  per cent of control: 100%
RPS6KA2 KD2 (human)
  per cent of control: 42%
RPS6KB1 (human)
  per cent of control: 42%
CDK9 (human)
  per cent of control: 73%
MAPK10 (human)
  per cent of control: 4.4%
MAP4K3 (human)
  per cent of control: 12%
PRKD3 (human)
  per cent of control: 83%
[3]
  per cent of control: 0.45%
MAP2K7 (human)
  per cent of control: 63%
CDK14 (human)
  per cent of control: 3.8%
CASK (human)
  per cent of control: 100%
RIOK2 (human)
  per cent of control: 42%
PKN2 (human)
  per cent of control: 91%
NEK2 (human)
  per cent of control: 71%
PIM2 (human)
  per cent of control: 100%
PRKD2 (human)
  per cent of control: 83%
